# Read-outs that look alike come from different tables or passages of the source. Marks after values point to notes of the source that are not given here.
# Assays:
# [1] = Clearance (Table V comments, no method given); format: in vitro ADME
# [2] = system: retinal ganglion cell axons; experiment: Protection of retinal ganglion cell axons from degeneration following optic nerve transection (Table V); format: in vivo; details: ± SEM
# Excerpt: Efficacy of representative compounds from different immunophilin ligand series in protecting retinal ganglion cell axons from degeneration following optic nerve transection is set forth in Table V.
# Efficacy of representative compounds from different immunophilin ligand series in protecting retinal ganglion cell axons from degeneration following optic nerve transection
# [3] = target: FKBP12 (Homo sapiens, UniProt P62942); experiment: Ki test procedure: inhibition of peptidyl-prolyl isomerase (rotamase) activity, chymotrypsin-coupled assay; format: biochemical
# Chain of FKBP12 (P62942 whole entry, species assumed): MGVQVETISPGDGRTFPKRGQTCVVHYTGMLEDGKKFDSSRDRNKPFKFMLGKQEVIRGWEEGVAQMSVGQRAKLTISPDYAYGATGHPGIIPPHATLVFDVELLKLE
# Excerpt: The inhibition of the prolyl peptidyl cis-trans isomerase activity of FKBP may be measured as an indicator of this affinity.
# Inhibition of the peptidyl-prolyl isomerase (rotamase) activity of the compounds used in the inventive methods and pharmaceutical compositions can be evaluated by known methods described in the literature (Harding et al., Nature, 1989, 341:758-760; Holt et al. J. Am. Chem. Soc., 115:9923-9938).
# The cis-trans isomerization of an alanine-proline bond in a model substrate, N-succinyl-Ala-Ala-Pro-Phe-p-nitroanilide, is monitored spectrophotometrically in a chymotrypsin-coupled assay, which releases para-nitroanilide from the trans form of the substrate. The inhibition of this reaction caused by the addition of different concentrations of inhibitor is determined, and the data is analyzed as a change in first-order rate constant as a function of inhibitor concentration to yield the apparent Ki values.
# In a plastic cuvette are added […] of ice cold assay buffer (25 mM HEPES, pH 7.8, 100 mM NaCl), 10 mL of FKBP (2.5 mM in 10 mM Tris-Cl pH 7.5, 100 mM NaCl, 1 mM dithiothreitol), 25 mL of chymotrypsin (50 mg/ml in 1 mM HCl) and […] of test compound at various concentrations in dimethyl sulfoxide. The reaction is initiated by the addition of 5 mL of substrate (succinyl-Ala-Phe-Pro-Phe-para-nitroanilide, 5 mg/mL in 2.35 mM LiCl in trifluoroethanol).
# The absorbance at 390 nm versus time is monitored for 90 seconds using a spectrophotometer and the rate constants are determined from the absorbance versus time data files.
# [4] = system: retina; experiment: Streptozotocin induced diabetes: retinal neovascularization and neuron loss; format: in vivo; details: 28 day treatment beginning 8 weeks after onset of diabetes
# [5] = system: retinal ganglion cells and optic nerve; experiment: Retinal ischemia (intraocular pressure raised above arterial blood pressure), examined 28 days later; format: in vivo, rats; details: toluidine blue staining; 28 days after 1 hour retinal ischemia
# Excerpt: Retinal ganglion cells were retrogradely labeled in adult rats by bilateral injection of fluorogold in their lateral geniculate nuclei. Labeled ganglion cells in the normal rat retina appear as white profiles against the dark background (FIG. 1A). Complete retinal ischemia was produced by infusing normal saline solution into the retinal vitreous cavity of each eye until the intraocular pressure exceeded arterial blood pressure. 28 days after the ischemic episode extensive degeneration of retinal ganglion cell was evidenced by massive reduction in the density of fluorogold labeled cells (FIG. 1B).
# Optic nerves from vehicle treated cases examined 28 days after a 1 hour retinal ischemic episode are characterized by a decreased density of optic nerve axons and the appearance of numerous degenerating myelin figures (bright white filled circles).
# [6] = system: retinal ganglion cells; experiment: Example 16: optic nerve transection, 28 days treatment, sacrifice at 90 days; format: in vivo, Sprague Dawley rats; details: 10 mg/kg/day s.c. for 28 days; 90 days after transection
# Excerpt: Transection of the mammalian optic nerve results in a brief period of abortive regeneration, but the majority of axotomized neurons die and the axons from many persisting ganglion cells die back beyond the optic nerve head.
# [7] = system: retinal ganglion cells and optic nerve axons; experiment: In vivo retinal ganglion cell and optic nerve axon tests: optic nerve transection, 14 or 28 day treatment, sacrifice at 90 days; set-up: species or system Sprague Dawley rats; details: for ON head area (% sham) / ON Axon density / pattern of myelin degeneration, proximal stump (myelin basic protein immunohistochemistry) / pattern of myelin labeling and degenerating myelin figures, distal stump: 90 days after transection; for ON Axon density: RT97 labeled axons in 200 μm × 200 μm region; for increased ON axon density: adjusted for optic nerve diameter; for Distat optic nerve: shrinkage of cross sectional area: cross sectional area compared to sham control
# Excerpt: All eyes and optic nerves stumps were removed.
# [8] = system: aged mice; experiment: Morris watermaze spatial learning and memory in aged rodents; format: in vivo, C57BL/6N-Nia mice; details: 10 mg/kg daily
# Excerpt: The Morris watermaze is widely used for assessing spatial memory formation and retention in experimental animals. The test depends on the animal's ability to utilize spatial visual information in order to locate a submerged escape platform in a water tank. It is important that the tank itself be as devoid of specific visual features as possible—thus, it is always circular in shape, the sides are kept smooth and in uniform dull colors, and the water is rendered opaque with nontoxic watercolor pigment or powdered milk. This is to ensure that the animal navigates only by the use of more distant visual cues, or by the use of intra-maze cues specifically provided by the experimenter. The animals' path, speed, and swim time are tracked with a ceiling camera for later computerized analysis. Over the course of several successive trials, spatial learning can therefore be defined as a drop of distance swum, or time elapsed, from placement in the tank until escape onto the invisible platform. The procedure involved using three-month old (young) and 18-19 month old male C57BL/6N-Nia (aged) mice which habituated to the well known and conventional Morris watermaze during a 4 trials/day, 3-4 day visible platform training phase. […] Swim Distances (cm) were analyzed in a 7×5 ANOVA including Groups and Blocks (1-5) as factors in the analysis, treating Blocks as a repeated measure.
# [9] = Table V comments, read-out: Ki rotomase
# [10] = apparent Ki, rotamase inhibition, read-out: Ki
molecule,measurement,setting,value
"3-(3-pyridyl)-1-propyl (2s)-1-(3,3-dimethyl-1,2-dioxopentyl)-2-pyrrolidinecarboxylate [GPI 1046]",Clearance,[1],63.8 µL/min
same,RT97-RGC axon density 11 days after ON transection (36 ON axon rescued),[2],60.5% ±3.9 SEM
same,Ki,[3]; [9],7.5 nM
O=C(SCCCc1ccccc1)C1CCCN1C(=O)NC12CC3CC(CC(C3)C1)C2 (stereo not shown) [B],RT97-RGC axon density 11 days after ON transection (36 ON axon rescued),[2],100.0% ±5.2% SEM
same,Ki,[3]; [9],149 nM
O=C(SCCCc1ccccc1)C1CCCN1S(=O)(=O)Cc1ccccc1 (stereo not shown) [C],Clearance,[1],31.1 µL/min
same,RT97-RGC axon density 11 days after ON transection (36 ON axon rescued),[2],60.4% ±3.1% SEM
same,Ki,[3]; [9],107 nM
"CCC(C)CNC(=O)N1CCC[C@H]1C(=O)SCCCc1cccnc1 (stereo partly drawn) [Compound 1, 3-(3-Pyridyl)-1-propylmercaptyl 2S-1-[(2-methylbutyl)carbamoyl]pyrrolidine-2-carboxylate]",Ki,[3]; [10],1 to 50 nM
CCC(C)(C)NC(=O)N1CCC[C@H]1C(=O)SCCCc1cccnc1 [Compound 2],Ki,[3]; [10],51 to 200 nM
CCC(C)(C)NC(=O)N1CCCC1C(=O)SCCc1ccccc1 (stereo not shown) [Compound 4],Ki,[3]; [10],51 to 200 nM
O=C(SCCCc1cccnc1)C1CCCN1C(=O)NC1CCCCC1 (stereo not shown) [Compound 6],Ki,[3]; [10],201 to 500 nM
"O=C(SCCCc1cccnc1)[C@@H]1CCCN1C(=S)NC1CCCCC1 [Compound 7, 3-(3-pyridyl)-1-propylmercaptyl 2S-1-[(cyclohexyl)thiocarbamoyl]-pyrrolidine-2-carboxylate]",Ki,[3]; [10],51 to 200 nM
CCC(C)(C)NC(=O)N1CCCCC1C(=O)SCCCc1ccccc1 (stereo not shown) [Compound 11],Ki,[3]; [10],51 to 200 nM
O=C(SCCCc1ccccc1)C1CCCCN1C(=O)Nc1ccccc1 (stereo not shown) [Compound 12],Ki,[3]; [10],1 to 50 nM
O=C(SC(CCc1ccccc1)CCc1ccccc1)C1CCCCN1C(=S)NC1CCCCC1 (stereo not shown) [Compound 15],Ki,[3]; [10],1 to 50 nM
COc1ccc(CCCSC(=O)C2CCCCN2C(=O)NC2CCCCC2)cc1 (stereo not shown) [Compound 16],Ki,[3]; [10],51 to 200 nM
O=C(OCCCCc1ccccc1)[C@@H]1CCCCN1S(=O)(=O)Cc1ccccc1 [D],RT97-RGC axon density 11 days after ON transection (36 ON axon rescued),[2],58.4% ±6.4% SEM
CCC(C)(C)C(=O)C(=O)N1CCS[C@H]1C(=O)OCCCc1cccnc1 [F],RT97-RGC axon density 11 days after ON transection (36 ON axon rescued),[2],55.1% ±5.9% SEM
"CCC(C)(C)C(=O)C(=O)N1CCC[C@H]1C(=O)OCCCc1cccnc1 [GPI 1046, 3-(3-pyridyl)-1-propyl (2s)-1-(3,3-dimethyl-1,2-dioxopentyl)-2-pyrrolidinecarboxylate]",neuronal loss in the ONL,[4],did not appear to protect against neuronal loss
same,loss of neurons in the INL and GCL,[4]; vs streptozotocin/vehicle controls,appeared to decrease the loss of neurons
same,density of degenerating myelin figures in optic nerve,[5],dramatically decreased
same,preservation of axons in the proximal stump (RT97 neurofilament),[6],preserved the axons of virtually all protected neurons
same,ON head area (% sham),[7]; ONT/14 days treatment,76%
same,ON Axon density,[7]; ONT/14 days treatment,569
same,increased ON axon density,[7]; ONT/14 days treatment,1.5X
same,Distat optic nerve: shrinkage of cross sectional area,[7]; ONT/14 days treatment,did not protect against shrinkage of the distal stump
same,Distat optic nerve myclin basic protein Density (myelin level),"[7]; ONT/14 days treatment, cross sectional area multiplied by myelin density",slightly increase the density of myelin
same,ON head area (% sham),[7]; ONT/28 days treatment,95%*
same,ON Axon density,[7]; ONT/28 days treatment,significant increase
same,increased ON axon density,[7]; ONT/28 days treatment,5.0 X
same,Distat optic nerve: shrinkage of cross sectional area,[7]; ONT/28 days treatment,prevented cross sectional shrinkage
same,"pattern of myelin degeneration, proximal stump (myelin basic protein immunohistochemistry)",[7]; first 14 days treatment,did not alter the pattern of myelin degeneration
same,"pattern of myelin labeling and degenerating myelin figures, distal stump",[7]; first 14 days treatment,density of degenerating myelin figures remained high
same,"pattern of myelin degeneration, proximal stump (myelin basic protein immunohistochemistry)",[7]; first 28 days treatment,dramatic preservation of the fascicular staining pattern
same,"pattern of myelin labeling and degenerating myelin figures, distal stump",[7]; first 28 days treatment,dramatic protection of the fascicular pattern of myelin labeling
same,difference between young and aged impaired treated groups during retention phase,"[8]; F1.69=3.09, P=0.08",no longer any statistically significant difference
same,"spatial memory performance (swim distance, retention testing)","[8]; aged impaired mice, retention testing after 3 weeks of dosing",significantly enhanced spatial memory performance
CCC(C)(C)C(=O)C(=O)N1CCCC[C@H]1C(=O)O [G],RT97-RGC axon density 11 days after ON transection (36 ON axon rescued),[2],34.0% ±4.8% SEM
CCC(C)(C)C(=O)C(=O)N1CCCC[C@H]1C(N)=O [H],RT97-RGC axon density 11 days after ON transection (36 ON axon rescued),[2],30.3% ±8.0% SEM
O=C(OCCCc1cccnc1)[C@@H]1CCCN1C(=S)NC1CCCCC1 [I],RT97-RGC axon density 11 days after ON transection (36 ON axon rescued),[2],23.8% ±5.3 SEM
CCC(C)(C)C(=O)C(=O)N1CCC[C@H]1C(=O)CCCCc1cccnc1 [J],RT97-RGC axon density 11 days after ON transection (36 ON axon rescued),[2],15.8% ±4.8% SEM
CCC(C)(C)C(=O)C(=O)N1CCCC[C@H]1C(=O)SCCC(c1ccccc1)c1ccccc1 [K],RT97-RGC axon density 11 days after ON transection (36 ON axon rescued),[2],13.0% ±4.2% SEM
CCC(C)(C)C(=O)C(=O)N1CCCC1C(=O)O (stereo not shown) [L],Clearance,[1],5.2 µL/min
same,RT97-RGC axon density 11 days after ON transection (36 ON axon rescued),[2],7.8% ±3.0% SEM
CCC(C)(C)C(=O)C(=O)N1CCC[C@H]1C(=O)SCCC(c1ccccc1)c1ccccc1 [M],RT97-RGC axon density 11 days after ON transection (36 ON axon rescued),[2],−6.3% +3.9% SEM

# Source: patent US6506788B1, “N-linked urea or carbamate of heterocyclic thioesters for vision and memory disorders” (GPI Nil Holdings, Inc., priority 1998, dated 2003)
